# How the values were obtained:
# [1] = cited from earlier work; for anxiety in the elevated plus-maze and social interaction tests: blockade of amygdala NPY Y1R, low stress conditions, Kask et al., 1998b, Sajdyk, 1999
# [2] = system: WistarF/Han (WF) rats; experiment: Social interaction (SI) test with Y1R antagonist pre-treatment (Example 4); format: in vivo; conditions: Fig. 10
# Experimental: (§1) Animals. Male WistarF/Han (WF) rats (Central Animal Laboratory, Hannover Medical School, Hannover, Germany, see http://www.mh-hannover.de/institut/tierlabor/wf.htm for details), weighing 330±31 g±SD, were housed in a sound-proof, temperature controlled (24.0±0.5°C) room under specific pathogen free conditions with a 12/12h dark/light cycle (lights on at 07.00 with illumination level of 80 Lux). Food (Altromin lab chow pellets) and tap water were available ad libitum. Under ketamine/xylasine (100/5 mg/kg, i.p.) anesthesia, the rats were fixed in a Kopf stereotaxic frame and implanted with cannulae (Plastic One, Inc., Roanoke, VA, USA) above the lateral ventricle. All research and animal care procedures were approved by the Lower Saxony district government (Hannover, Germany) and followed principles described in the European Community's Council Directive of 24 November 1986 (86/609/EEC).
# Surgery and i.c.v. application. […]
# Animals were randomly divided into eight experimental groups (n=6-8/group), which completed one SI test of anxiety: (1) aCSF+aCSF+aCSF; (2) BIBP+aCSF+aCSF; (3) aCSF+isoleucyl thiazolidine+aCSF; (4) BIBP+isoleucyl thiazolidine+aCSF; (5) aCSF+aCSF+NPY; (6) BIBP+aCSF+NPY; (7) aCSF+P32/89+NPY; (8) BIBP+isoleucyl thiazolidine+NPY. […] The time spent in active social interaction (SI-time), 1h, and 12h food-intake were measured. […]
# Social interaction (SI) test. […] Behavior was monitored using a video camera placed above the field inside the testing/isolation box. The SI behavior of both rats was recorded on-line from a monitor placed outside on top of the box. The following parameters were scored by an observer (HPN) unaware of the substrain of rats: duration of time spent in sniffing, following, crawling under and over other rats, but not passive body contact (resting, sleeping). […]
# (§2) Statistical analysis. Data obtained from the measures SI time and 1h food intake were analyzed by one-way (factor: "treatment") ANOVA. […]
# [3] = system: rats; conditions: administered into the dorsal periaqueductal gray matter; Kask et al., 1998d; cited from earlier work
# [4] = system: WistarF/Han (WF) rats; experiment: 1h food intake with Y1R antagonist pre-treatment (Example 4); format: in vivo; conditions: i.c.v., BIBP3226 100nmol pre-treatment; isoleucyl thiazolidine 50nmol; NPY 0.8nmol; Fig. 11
# Experimental: as §1
# (§3) Surgery and i.c.v. application. For surgery, rats were anesthetized and prepared with i.c.v. cannulae (coordinates: A:-0.7mm caudal, L:1.4mm lateral to bregma; and V3.2mm ventral to the skull surface; tooth bar +3.0 above ear bars) using standard stereotaxic procedures as described in detail elsewhere (von Hörsten et al., 1998a,b,c). After a 7-day recovery period, successful ventricle cannulation was confirmed by an angiotensin drinking response (von Hörsten et al., 1998a). Rats showing a positive drinking response (n=56) were then habituated to experimental handling by daily sham injections for seven days.
# Animals were randomly divided into eight experimental groups (n=6-8/group), which completed one SI test of anxiety: (1) aCSF+aCSF+aCSF; (2) BIBP+aCSF+aCSF; (3) aCSF+isoleucyl thiazolidine+aCSF; (4) BIBP+isoleucyl thiazolidine+aCSF; (5) aCSF+aCSF+NPY; (6) BIBP+aCSF+NPY; (7) aCSF+P32/89+NPY; (8) BIBP+isoleucyl thiazolidine+NPY. Animals in each group were treated in an identical way in each phase, receiving i.c.v. injections -60mins and -55min before behavioral testing. Experiments spanned two nights with groups counterbalances on both dark cycles. The injection cannula was attached to a Hamilton microsyringe with approximately 30cm of polyethylene tubing and all compounds were infused in a total volume of 5.0µl at a rate of 5.0 µl/min using a TSE multichannel infusion pump (Bad Homburg, Germany). The time spent in active social interaction (SI-time), 1h, and 12h food-intake were measured.
# Peptides and Antagonist. Rat neuropeptide Y1-36 was obtained from Polypeptide Laboratories (Wolfenbüttel, Germany). The NPY Y1 receptor antagonist BIBP3226 was purchased from American Peptide Company, Sunnyvale, CA, USA (Cat#:60-1-22B). […]
# as §2
# [5] = system: WistarF/Han (WF) rats; experiment: 1h and 12h food intake after combined i.c.v. treatment (Example 3); format: in vivo; conditions: single agents or combination, isoleucyl thiazolidine 5pmol-500nmol, NPY 50pmol-1.6nmol, Fig. 8
# Experimental: as §1, with “330-370g,” for “330±31 g±SD,”
# as §3, with “(n=59)” for “(n=56)”
# Animals were randomly divided into two sets of four experimental groups (n=5-6/group), which completed different consecutive SI test of anxiety. […] The time spent in active social interaction (SI-time), 1h and 12h food-intake were measured. […]
# Statistical analysis. Data from repeated observations (food intake) were analyzed by two-way analyses of variance for repeated measures (ANOVA) (factors: "substrain" and "food intake" as repeated measure). Data obtained from simple measures such as DP IV activity or SI time were analyzed by one-way (factor: "substrain") ANOVA. […]
# [6] = system: olfactory bulbectomized rats; conditions: 7-day i.c.v. administration; Song et al., 1996; cited from earlier work
# [7] = i.c.v. injection, Kask et al. (1996)
Compound,anxiety in the elevated plus-maze and social interaction tests [1],"effect on isoleucyl thiazolidine-induced potentiation of the NPY mediated anxiolytic-like effect on SI behavior ([2]; i.c.v. pre-treatment, BIBP3226 100nmol)",time spent in active social interaction [3],"effect in the elevated plus-maze test [1, 7]","locomotor effect [1, 7]",1h feeding under Y1R blockade [4],amount of food eaten within 1h [5],"anxiolytic-like effect in the SI test under Y1 receptor blockade ([2]; i.c.v., BIBP3226 100nmol pre-treatment, isoleucyl thiazolidine 50nmol, NPY 0.8nmol)",behavioral and neurotransmitters deficits [6]
NC(=O)NCc1ccc(CNC(=O)[C@@H](CCCN=C(N)N)NC(=O)C(c2ccccc2)c2ccccc2)cc1 [BIB03304],did not increase anxiety,,,,,,,,
NC(N)=NCCC[C@@H](NC(=O)C(c1ccccc1)c1ccccc1)C(=O)NCc1ccc(O)cc1 [BIBP3226],did not increase anxiety,can block,decreased,anxiogenic-like effects,without any locomotor deficit,only partly affected,,,
NPY: Rat neuropeptide Y1-36 obtained from Polypeptide Laboratories,,,,,,only partly mediated by the Y1R,"""u-shaped"" dose-dependent feeding effect",antagonized,attenuated

# From patent EP1891948A1, “Treatment of neurological and neuropsychological disorders” (Probiodrug AG, priority 2000, dated 2002)
